Data from article PMC7481701 (Royal Society Open Science, 2020).

What was measured:
[1] = biological target: T1, ChTL activity of the purified human 20S proteasome (Homo sapiens, UniProt P28074); assay: Purified 20S proteasome activity assay, ChTL activity (Suc-LLVY-AMC); assay type: biochemical; conditions: for inhibitory activity against the 20S proteasome (in words): ChTL activity, figure 2b
T1 construct: The human erythrocyte 20S proteasome was obtained from Boston Biochem; purchased Boston Biochem; host or cells: human erythrocytes
Experimental: For the proteasome inhibition assays, the peptide-7-amino-4-methylcoumarin (AMC) substrates (25 µM Suc-LLVY-AMC) and inhibitors were added to assay solutions. The assay buffer had the following composition: 25 mM HEPES, 0.5 mM EDTA, 0.03% SDS (pH 8.0). Human erythrocyte 20S proteasome (100 ng) was added to the assay buffer containing substrates and inhibitors at a final volume of 100 µl. After incubation at 37°C for 1 h, the fluorescence emission spectrum at 450 nm (λex, 365 nm) was measured by using a fluorescence microplate reader. The inhibition against PGPH activity of the 20S proteasome was determined as described above except that Z-LLE-AMC was used as the substrate. For the assay of inhibition against the trypsin-like activity of complex 2, the SDS was omitted from the assay buffer and Boc-LRR-AMC was used as the substrate. The assay of inhibition against the trypsin-like activity of complexes 1 and 3 was carried out by the Screening Committee of Anticancer Drugs (Cancer Chemotherapy Center, Japanese Foundation for Cancer Research).
[picture] For the proteasome inhibition assays, the peptide-AMC substrates (25 µM Suc-LLVY-AMC) and inhibitors were added to assay solutions. The assay buffer had the following composition: 25 mM HEPES, 0.5 mM EDTA, 0.03% SDS (pH 8.0). Human erythrocyte 20S proteasome (100 ng) was added to the assay buffer containing substrates and inhibitors at a final volume of 100 µL. After incubation at 37°C for 1 h, the fluorescence emission spectrum at 450 nm (λex, 365 nm) was measured by using a fluorescence microplate reader.

[2] = biological target: T2, ChTL activity of the 20S proteasome from cell lysates (colon26) (Mus musculus, UniProt O55234); assay: Inhibition against chymotrypsin-like activity in whole-cell lysates; assay type: biochemical; conditions: whole-cell lysate, figure S3
T2 construct: endogenous in cells; host or cells: colon26 whole-cell lysate
Experimental: Cultures of colon26 were grown at 37°C in RPMI1640 supplemented with 10% fetal bovine serum. Whole-cell lysates were prepared according to the method in the literature.
For the determination of inhibitory activity in whole-cell lysates, peptide-AMC substrates (50 µM Suc-LLVY-AMC), inhibitors and the whole-cell lysate (15 µg) were added to the assay solutions. The following assay buffer was used: 25 mM HEPES, 0.5 mM EDTA, 0.03% SDS (pH 8.0). After incubation at 37°C for 4 h, the fluorescence emission was measured at 450 nm (λex = 365 nm) by using a fluorescence microplate reader.
For the determination of inhibitory activity in the whole cell lysate, peptide-AMC substrates (50 µM Suc-LLVY-AMC), inhibitors, and the whole cell lysate (15 µg) were added to the assay solutions. The following assay buffer was used: 25 mM HEPES, 0.5 mM EDTA, 0.03% SDS (pH 8.0). After incubation at 37 °C for 4 h, the fluorescence emission was measured at 450 nm (λex = 365 nm) by using a fluorescence microplate reader.

[3] = purified 20S proteasome, figure S2

Row | SMILES | inhibitory activity against the 20S proteasome (in words) [1, 3] | remaining activity at 10 µM ([1]; at 10 µM, purified 20S proteasome, figure S2, read-out: residual activity of ChTL) [%] | IC50 ([1]; purified human erythrocyte 20S proteasome 100 ng, 25 µM Suc-LLVY-AMC, 37°C 1 h, mean ± s.d. (n = 3)) [µM] | inhibition in the cell-free system (in words) [2]
1 | NCCN.[Cl-].[Cl-].[Pt+2].c1ccncc1.c1ccncc1 [Pt(py)2(ethylenediamine), (ethylenediamine)bispyridine platinum(II) chloride, reference compound] | no inhibitory activity | – | – | –
2 | NCCNCc1c2ccccc2cc2ccccc12 [N-9-anthracenylmethyl-1,2-ethanediamine, reference compound] | weak inhibitory activity | 43 | ~10 | no inhibition
